The numbers were not newly measured in patent US20230184643A1, “METHOD FOR MEASURING OR IDENTIFYING A COMPONENT OF INTEREST IN SPECIMENS” (SHIMADZU CORPORATION, priority 2020, published 2023), which cites them from elsewhere.

Marks after values point to notes of the source that are not given here.

The conditions of this data set: Table 4.1; Drug bank accessed November 2020.

Regarding `CN[C@@H]1[C@@H](O)[C@@H](O[C@@H]2[C@@H](O)[C@H](O[C@H]3OC(CN)=CC[C@H]3N)[C@@H](N)C[C@H]2N)OC[C@]1(C)O` [Sisomicin], the LogP is recorded as −4.3^a.
